# Patent US6372236B1, “Cream composition for skin care” (Doosan Corporation, priority 2000, dated 2002)
# Tested on: acne
# Assay: Test on patients suffering from acne
# Format: in vivo, human
smiles,measurement,value
CCCCCCCCCCCCCC[C@@H](O)[C@@H](O)[C@@H](N)CO [phytosphingosine],therapeutic efficacy,good therapeutic efficacy
